Counter-ions that a name gives are not always drawn.
Target: T1, CDK12 (Homo sapiens, UniProt Q9NYV4)
T1 construct: ProQinase (named as the party running the assay)
Assay: Radiometric protein kinase assay (33PanQinase), assay condition 1, thiol-free conditions
Type: biochemical
Conditions: thiol-free conditions (1 mM TCEP), ATP at apparent Km
Method: Example 2 —Assay condition 1 (thiol-free conditions)
The IC50 profile of compounds was determined using protein kinase in a customized, thiol free assay. IC50 values were measured by testing 10 concentrations (1×10^−05 M to 3×10^−10 M) of each test compound in singlicate against each kinase of interest. Prior to testing, the 1×10^−03M stock solutions in column 2 of the master plates were subjected to a serial, semi-logarithmic dilution using 100% DMSO as a solvent. […] Column 1 and 7 were filled with 100% DMSO as controls. Subsequently, 2×10 microliter from each well of the serial diluted copy plates were aliquoted with a 96 channel pipettor into two identical sets of “compound dilution plates”. All plates were barcoded for automated identification and tracking purposes. IC50 values were measured by testing 10 concentrations (1×10^−05 M to 3×10^−10 M) of each compound in singlicate. All compounds were stored as powder until being solubilized in DMSO. Solubilized compounds were stored as 1×10^−02 M/100% DMSO stock solutions. Prior to the assay process, 90 microliters of H2O were added to each well of a set of compound dilution plates. To minimize potential precipitation, the H2O was added to each plate only a few minutes before the transfer of the compound solutions into the assay plates. Each plate was shaken thoroughly, resulting in compound dilution plates with a final of 10% DMSO. For each assay, 5 microliters of solution from each well of the compound dilution plates/10% DMSO were transferred into the assay plate. The final volume of the assay was 50 μl. All compounds were tested at 10 final assay concentrations in the range from 1×10^−05 M to 3×10^−10 M, in singlicate. The final DMSO concentration in the reaction cocktails was 1% in all cases. A radiometric protein kinase assay (33PanQinase® Activity Assay) was used for measuring the kinase activity of the protein kinase. All kinase assays were performed in 96-well FlashPlates™ from PerkinElmer (Boston, Mass., USA) in a 50 microliter reaction volume. The reaction cocktail was pipetted in four steps in the following order: 20 microliter of assay buffer (standard buffer) 5 microliter of ATP solution (in H2O) 5 microliter of test compound (in 10% DMSO) 20 microliter enzyme/subtrate mix. Each assay for the protein kinase contained 70 mM HEPES-NaOH pH 7.5, 3 mM MgCl2, 3 mM MnCl2, 3 microM Na-orthovanadate, 1 mM TCEP, 50 μg/ml PEG20000, ATP (corresponding to the apparent ATP-Km of the kinase, see Table A), [gamma-33P]-ATP (approx. 6×10×E5 cpm per well), with the protein kinase and relevant substrate being used in pre-determined amounts, depending on the kinase in question. For all experiments labeled as “Thiol-free”, all glutathione was exchanged from protein preparations so as to be removed from the assay and final buffer conditions contained no thiol- containing reagents. This was done so there would be no interference with the key cysteines in the proteins of interest.
For data analysis, the median value of the counts in column 1 (n=8) of each assay plate was defined as “low control”. This value reflects unspecific binding of radioactivity to the plate in the absence of a protein kinase but in the presence of the substrate. The median value of the counts in column 7 of each assay plate (n=8) was taken as the “high control”, i.e. full activity in the absence of any inhibitor. The difference between high and low control was taken as 100% activity. As part of the data evaluation the low control value from a particular plate was subtracted from the high control value as well as from all 80 “compound values” of the corresponding plate. The residual activity (in %) for each well of a particular plate was calculated by using the following formula:
Res. Activity (%)=100×[(cpm of compound−low control)/(high control−low control)] […]

T1 sequence (Q9NYV4 whole entry): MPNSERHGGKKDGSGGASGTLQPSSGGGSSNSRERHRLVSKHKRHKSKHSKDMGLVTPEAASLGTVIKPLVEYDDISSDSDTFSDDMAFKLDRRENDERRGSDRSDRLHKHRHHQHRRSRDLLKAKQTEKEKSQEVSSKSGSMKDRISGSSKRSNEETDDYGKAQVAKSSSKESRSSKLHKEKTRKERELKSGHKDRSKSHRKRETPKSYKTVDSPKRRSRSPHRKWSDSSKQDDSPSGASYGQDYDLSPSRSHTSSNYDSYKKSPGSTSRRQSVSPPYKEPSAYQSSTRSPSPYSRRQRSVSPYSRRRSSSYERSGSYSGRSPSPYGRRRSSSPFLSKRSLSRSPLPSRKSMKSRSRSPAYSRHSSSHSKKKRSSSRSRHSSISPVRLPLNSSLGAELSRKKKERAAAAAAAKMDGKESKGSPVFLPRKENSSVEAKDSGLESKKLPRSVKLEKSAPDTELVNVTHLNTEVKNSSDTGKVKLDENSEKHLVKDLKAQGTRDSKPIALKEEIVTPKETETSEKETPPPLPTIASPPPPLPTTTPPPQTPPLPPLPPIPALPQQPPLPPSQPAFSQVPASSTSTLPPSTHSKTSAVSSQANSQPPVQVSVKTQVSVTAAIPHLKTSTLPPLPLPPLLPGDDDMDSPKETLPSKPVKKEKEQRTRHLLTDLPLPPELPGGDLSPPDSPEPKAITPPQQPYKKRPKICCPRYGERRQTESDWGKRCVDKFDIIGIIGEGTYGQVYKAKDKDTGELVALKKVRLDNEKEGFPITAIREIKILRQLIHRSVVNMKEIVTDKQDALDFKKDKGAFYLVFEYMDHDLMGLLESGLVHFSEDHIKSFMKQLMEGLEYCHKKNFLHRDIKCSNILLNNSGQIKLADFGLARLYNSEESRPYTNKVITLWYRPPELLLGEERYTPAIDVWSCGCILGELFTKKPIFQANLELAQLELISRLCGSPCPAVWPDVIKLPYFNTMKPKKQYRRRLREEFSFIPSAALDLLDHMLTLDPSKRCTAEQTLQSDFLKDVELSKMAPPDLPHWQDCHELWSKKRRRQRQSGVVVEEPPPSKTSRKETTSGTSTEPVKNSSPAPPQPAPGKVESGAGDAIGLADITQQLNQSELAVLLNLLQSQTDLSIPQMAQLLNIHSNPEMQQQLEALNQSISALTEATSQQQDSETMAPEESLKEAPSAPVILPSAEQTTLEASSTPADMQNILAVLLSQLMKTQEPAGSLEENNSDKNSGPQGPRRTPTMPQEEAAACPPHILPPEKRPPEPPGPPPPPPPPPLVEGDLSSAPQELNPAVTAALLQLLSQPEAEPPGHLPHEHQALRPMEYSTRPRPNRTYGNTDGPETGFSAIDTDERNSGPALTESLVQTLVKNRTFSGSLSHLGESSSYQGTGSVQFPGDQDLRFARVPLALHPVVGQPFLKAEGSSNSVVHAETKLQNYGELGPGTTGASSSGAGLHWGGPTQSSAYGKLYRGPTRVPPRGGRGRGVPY
T1 sequence (O75909 whole entry partner): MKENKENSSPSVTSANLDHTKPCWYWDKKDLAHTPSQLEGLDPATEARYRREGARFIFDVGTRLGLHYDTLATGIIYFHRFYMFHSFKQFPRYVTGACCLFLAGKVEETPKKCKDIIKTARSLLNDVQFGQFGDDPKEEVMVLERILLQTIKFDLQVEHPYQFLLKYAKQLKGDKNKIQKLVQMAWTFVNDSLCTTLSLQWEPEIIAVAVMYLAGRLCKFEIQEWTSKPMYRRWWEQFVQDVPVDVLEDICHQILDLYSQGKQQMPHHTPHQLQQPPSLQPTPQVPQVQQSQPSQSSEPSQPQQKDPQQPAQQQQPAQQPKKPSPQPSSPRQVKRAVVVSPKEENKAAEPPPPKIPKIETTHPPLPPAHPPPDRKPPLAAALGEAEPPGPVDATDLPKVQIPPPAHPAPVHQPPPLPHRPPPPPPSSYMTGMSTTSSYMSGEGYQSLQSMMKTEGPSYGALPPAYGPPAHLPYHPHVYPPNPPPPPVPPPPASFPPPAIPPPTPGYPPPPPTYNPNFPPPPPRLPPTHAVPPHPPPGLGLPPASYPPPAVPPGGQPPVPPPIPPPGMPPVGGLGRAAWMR

Row | Structure (SMILES) | IC50 [nM]
1 | C=CC(=O)Nc1ccc2c(N3CC[C@@H](Nc4ncc(C(F)(F)F)cn4)C3)ncnc2c1 [Example 2, (R)-N-(4-(3-((5-(trifluoromethyl)pyrimidin-2-yl)amino)pyrrolidin-1-yl)quinazolin-7-yl)acrylamide] | ≤ 100
2 | C=CC(=O)Nc1ccc2c(N3CC[C@@H](Nc4ncc(Cl)c(OCC)n4)C3)nccc2c1 [Example 19, (R)-N-(1-(3-((5-chloro-4-ethoxypyrimidin-2-yl)amino)pyrrolidin-1-yl)isoquinolin-6-yl)acrylamide] | ≤ 100
3 | C=CC(=O)Nc1ccc2c(N3CC[C@@H](Nc4ncc(Br)cn4)C3)nc(N3CCOCC3)nc2c1 [Example 20, (R)-N-(4-(3-((5-bromopyrimidin-2-yl)amino)pyrrolidin-1-yl)-2-morpholinoquinazolin-7-yl)acrylamide] | ≤ 100
4 | C=CC(=O)Nc1ccc2c(N3CC[C@@H](Nc4ncc5ccncc5n4)C3)ncnc2c1 [Example 16, (R)-N-(4-(3-(pyrido [3,4-d]pyrimidin-2-ylamino)pyrrolidin-1-yl)quinazolin-7-yl)acrylamide] | ≤ 100
5 | C=CC(=O)Nc1ccc2c(N3CC[C@@H](Nc4ncc(Cl)cn4)C3)ncnc2c1 [Example 1, (R)-N-(4-(3-((5-chloropyrimidin-2-yl)amino)pyrrolidin-1-yl)quinazolin-7-yl)acrylamide] | 100 to 1000
6 | C=CC(=O)Nc1ccc2c(N3CC[C@@H](Nc4ncc(Cl)c(C(F)(F)F)n4)C3)ncnc2c1 [Example 9, (R)-N-(4-(3-((5-chloro-4-(trifluoromethyl)pyrimidin-2-yl)amino)pyrrolidin-1-yl)quinazolin-7-yl)acrylamide] | ≤ 100
7 | C#Cc1cnc(N[C@@H]2CCN(c3nncc4cc(NC(=O)C=C)ccc34)C2)nc1 [Example 51, (R)—N-(1-(3-((5-ethynylpyrimidin-2-yl)amino)pyrrolidin-1-yl)phthalazin-6-yl)acrylamide formate] | ≤ 100
8 | C=CC(=O)Nc1ccc2c(N3CC[C@@H](Nc4ncc5cc(F)ccc5n4)C3)ncnc2c1 [Example 8, (R)-N-(4-(3-((6-fluoroquinazolin-2-yl)amino)pyrrolidin-1-yl)quinazolin-7-yl)acrylamide] | ≤ 100
9 | C=CC(=O)Nc1ccc2c(N3CC[C@@H](Nc4ncc5sccc5n4)C3)ncnc2c1 [Example 11, (R)-N-(4-(3-(thieno [3,2-d]pyrimidin-2-ylamino)pyrrolidin-1-yl)quinazolin-7-yl)acrylamide] | ≤ 100
10 | C=CC(=O)Nc1ccc2c(N3CC[C@@H](Nc4ncc(C#N)cn4)C3)nc(N3CCOCC3)nc2c1 [Example 22, (R)-N-(4-(3-((5-cyanopyrimidin-2-yl)amino)pyrrolidin-1-yl)-2-morpholinoquinazolin-7-yl)acrylamide] | 100 to 1000
11 | C=CC(=O)Nc1ccc2c(N3CC[C@@H](Nc4ncc(Br)cn4)C3)nc(C)nc2c1 [Example 21, (R)-N-(4-(3-((5-bromopyrimidin-2-yl)amino)pyrrolidin-1-yl)-2-methylquinazolin-7-yl)acrylamide] | ≤ 100
12 | C=CC(=O)N(C)c1ccc2c(N3CC[C@@H](Nc4ncc(Br)cn4)C3)nccc2c1 [Example 27, (R)-N-(1-(3-((5-bromopyrimidin-2-yl)amino)pyrrolidin-1-yl)isoquinolin-6-yl)-N-methylacrylamide] | ≤ 100
13 | C=CC(=O)Nc1ccc2c(N3CC[C@@H](Nc4ncc(Br)cn4)C3)nnc(N3CCC3)c2c1 [Example 52, (R)—N-(4-(azetidin-1-yl)-1-(3-((5-bromopyrimidin-2-yl)amino)pyrrolidin-1-yl)phthalazin-6-yl)acrylamide] | ≤ 100
14 | C=CC(=O)Nc1ccc2c(N3CC[C@@H](Nc4ncc(C#N)cn4)C3)nc(N)nc2c1 [Example 31, (R)—N-(2-amino-4-(3-((5-cyanopyrimidin-2-yl)amino)pyrrolidin-1-yl)quinazolin-7-yl)acrylamide] | ≤ 100
15 | C=CC(=O)N(C)c1ccc2c(N3CC[C@@H](Nc4ncc(Br)cn4)C3)nc(N3CCN(C)CC3)nc2c1 [Example 43, (R)—N-(4-(3-((5-bromopyrimidin-2-yl)amino)pyrrolidin-1-yl)-2-(4-methylpiperazin-1-yl)quinazolin-7-yl)-N-methylacrylamide] | ≤ 100
16 | C=CC(=O)Nc1ccc2c(N3CC[C@@H](Nc4ncc(Br)cn4)C3)nccc2c1 [Example 18, (R)-N-(1-(3-((5-bromopyrimidin-2-yl)amino)pyrrolidin-1-yl)isoquinolin-6-yl)acrylamide] | ≤ 100
17 | C/C=C/C(=O)Nc1ccc2c(N3CC[C@@H](Nc4ncc(Br)cn4)C3)nccc2c1 [Example 28, (R,E)-N-(1-(3-((5-bromopyrimidin-2-yl)amino)pyrrolidin-1-yl)isoquinolin-6-yl)but-2-enamide] | ≤ 100
18 | C=CC(=O)Nc1ccc2c(N3CC[C@@H](Nc4ncc(Cl)c(NC)n4)C3)ncnc2c1 [Example 14, (R)-N-(4-(3-((5-chloro-4-(methylamino)pyrimidin-2-yl)amino)pyrrolidin-1-yl)quinazolin-7-yl)acrylamide] | ≤ 100
19 | C=CC(=O)Nc1ccc2c(N3CC[C@@H](Nc4ncc(C#N)cn4)C3)nnc(N3CC(C#N)C3)c2c1 [Example 54, (R)—N-(4-(3-cyanoazetidin-1-yl)-1-(3-((5-cyanopyrimidin-2-yl)amino)pyrrolidin-1-yl)phthalazin-6-yl)acrylamide] | ≤ 100
20 | C=CC(=O)Nc1ccc2c(N3CC[C@@H](Nc4ncc(C#N)cn4)C3)nc(C)nc2c1 [Example 30, (R)—N-(4-(3-((5-cyanopyrimidin-2-yl)amino)pyrrolidin-1-yl)-2-methylquinazolin-7-yl)acrylamide] | ≤ 100
21 | C=CC(=O)Nc1ccc2c(N3CC[C@@H](Nc4ncc(Br)cn4)C3)nncc2c1 [Example 50, (R)—N-(1-(3-((5-bromopyrimidin-2-yl)amino)pyrrolidin-1-yl)phthalazin-6-yl)acrylamide] | ≤ 100
22 | C=CC(=O)Nc1ccc2c(N3CC[C@@H](Nc4ncc(Br)c(OC)n4)C3)ncnc2c1 [Example 5, (R)-N-(4-(3-((5-bromo-4-methoxypyrimidin-2-yl)amino)pyrrolidin-1-yl)quinazolin-7-yl)acrylamide] | ≤ 100
23 | C#Cc1cnc(N[C@@H]2CCN(c3nccc4cc(NC(=O)C=C)ccc34)C2)nc1 [Example 48, (R)—N-(1-(3-((5-ethynylpyrimidin-2-yl)amino)pyrrolidin-1-yl)isoquinolin-6-yl)acrylamide] | ≤ 100
24 | C=CC(=O)Nc1ccc2c(N3CC[C@@H](Nc4cc5c(cn4)cnn5CC)C3)ncnc2c1 [Example 34, (R)—N-(4-(3-((1-ethyl-1H-pyrazolo[4,3-c]pyridin-6-yl)amino)pyrrolidin-1-yl)quinazolin-7-yl)acrylamide] | ≤ 100
25 | C=CC(=O)Nc1ccc2c(N3CC[C@@H](Nc4ncc5ccccc5n4)C3)ncnc2c1 [Example 13, (R)-N-(4-(3-(quinazolin-2-ylamino)pyrrolidin-1-yl)quinazolin-7-yl)acrylamide] | ≤ 100
26 | C=CC(=O)Nc1ccc2c(N3CC[C@@H](Nc4ncc(Cl)c(OCC)n4)C3)ncnc2c1 [Example 3, (R)-N-(4-(3-((5-chloro-4-ethoxypyrimidin-2-yl)amino)pyrrolidin-1-yl)quinazolin-7-yl)acrylamide] | ≤ 100
27 | C=CC(=O)Nc1ccc2c(N3CC[C@@H](Nc4ncc(Cl)c(OC)n4)C3)ncnc2c1 [Example 4, (R)-N-(4-(3-((5-chloro-4-methoxypyrimidin-2-yl)amino)pyrrolidin-1-yl)quinazolin-7-yl)acrylamide] | ≤ 100
28 | C#Cc1cnc(N[C@@H]2CCN(c3nccc4cc(NC(=O)C=C)ccc34)C2)nn1 [Example 47, (R)—N-(1-(3-((6-ethynyl-1,2,4-triazin-3-yl)amino)pyrrolidin-1-yl)isoquinolin-6-yl)acrylamide] | ≤ 100
